In patent publication US5604226A, “Pyridazinone derivatives, processes for production thereof and use thereof” (Nihon Nohyaku Co., Ltd., priority 1993, dated 1997):

Legend:
[1] = test system: thrombocytopenia in mice (collagen-induced, platelet count); test: Activity of preventing thrombocytopenia in mice, collagen i.v. (Experiment 3); format: in vivo, male ddY mice; settings: Mus musculus, 3.0 mg/kg oral, 1 hour before collagen 0.5 mg/kg i.v., * p = 5%, ** p = 1%, *** p = 0.1%, read-out: Average Inhibition Rate (platelet count; normal mouse 100, control mouse 0)
Protocol: Activity of preventing thrombocytopenia in mice:
Collagen (Holm Co.) diluted with physiological saline was intravenously given through the vein to male ddY mice of 6 weeks old, weighing 28-31 g, which had been fasted for 4-5 hours, in a dose of 0.5 mg/kg. Five minutes after, blood was collected from the lower thigh vein under pentobarbital anesthesia through a plastic syringe treated with heparin containing 3.8% sodium citrate. The drug was orally given an hour before the collagen administration. The platelet count was measured with Sysmex E-4000. The inhibition activity is shown in terms of percentage of the platelet count when the platelet count of normal mouse was made 100 and the platelet count of control mouse was made 0.

[2] = test system: ADP-inducing platelet aggregation; test: Rabbit exo-vivo test, ADP-inducing platelet aggregation after oral administration (Experiment 2); format: in vivo, Japanese white rabbits
Protocol: Japanese white rabbits weighing 3.0-4.0 kg were fasted for 18 hours. A drug suspension in 2% gum arabic aqueous solution was orally given to the animal in a definite dose. Blood was collected 1 and 4 hours after. PRP was prepared in a manner similar to Experiment 1 and ADP-inducing platelet aggregation function was determined. An inhibition rate was calculated based on an aggregation rate of ADP prior to administration of the compound.

[3] = test system: Platelet aggregation (ADP, rabbit platelet rich plasma); test: Platelet aggregation inhibition in rabbit PRP, ADP-induced, Born's turbidimetry (Experiment 1); format: cell-based; settings: Oryctolagus cuniculus, 0.05 h, ADP 2 to 4 μM, 3 min incubation, read-out: Aggregation Inhibition Rate; for inhibition at 1 µg/mL: 10^-6 g/ml; for inhibition at 0.1 µg/mL: 10^-7 g/ml
Protocol: Blood was collected from the ear vein of rabbit, together with 1/10 volume sodium citrate. Centrifugation at 1,200 rpm for 10 minutes gave the supernatant which was made platelet rich plasma (PRP). The blood was further centrifuged at 3,000 rpm for 10 minutes to give platelet poor plasma (PPP). The platelet count of PRP was adjusted to 300,000/μl with PPP, which was provided for the test. Platelet aggregation was determined with aggregometer (HEMATRACERVI, Niko Bioscience Co.) based on Born's turbidimetry. That is, 200 μl of PRP was charged in a cell and 1 μl of a drug solution dissolved in dimethylsulfoxide was added thereto. After incubation for 3 minutes, ADP was added in a concentration of 2 to 4 μM to cause aggregation. Change in transmittance in the cell was then monitored. The results are shown in Table 2, in terms of aggregation inhibition rate which was determined by comparing a transmittance of control with that obtained at the maximum aggregation on an aggregation curve when the transmittance of PRP was made 0% and the transmittance of PPP was made 100%.

For `COc1ccc(CNc2c(OCCCc3ccccc3)n[nH]c(=O)c2Br)cc1OC` [C, reference compound], the inhibition in vivo at 3 mg/kg [1] was 27.4%, the “Average Inhibition Rate” value ([2]; 3 mg/kg oral, 1 Hour) was 20% and the “Average Inhibition Rate” value ([2]; 3 mg/kg oral, 4 Hours) was 23%. The “Average Inhibition Rate” value ([2]; 30 mg/kg oral, 1 Hour) was 36% and the “Average Inhibition Rate” value ([2]; 30 mg/kg oral, 4 Hours) was 35%.

`O=c1[nH]nc(OCCCc2ccccc2)c(NCc2cccnc2)c1Br` [Comparative Compound A, reference compound] gave an inhibition at 1 µg/mL [3] of 100% and an inhibition at 0.1 µg/mL [3] of 84%.

For `COc1ccc(CNc2c(OCCOc3ccccc3)n[nH]c(=O)c2Br)cc1OC` [Comparative Compound B, reference compound], the inhibition at 0.1 µg/mL [3] was 79%.

Work on `O=c1[nH]nc(OCCSc2ccccc2)c(NCc2cccnc2)c1Cl` [Compound 1] yielded an inhibition at 1 µg/mL [3] of 100% and an inhibition at 0.1 µg/mL [3] of 37%.

Work on `O=c1[nH]nc(OCCCSc2ccccc2)c(NCc2cccnc2)c1Cl` [Compound 2, 4-chloro-6-[3-(phenylthio)propyloxy]-5-(3-picolylamino)-3(2H)-pyridazinone] yielded an inhibition at 1 µg/mL [3] of 100% and an inhibition at 0.1 µg/mL [3] of 27%.

In the case of `COc1ccc(CNc2c(OCCSc3ccccc3)n[nH]c(=O)c2Cl)cc1OC` [Compound 4], the inhibition at 1 µg/mL [3] is reported as 100% and the inhibition at 0.1 µg/mL [3] is reported as 100%.

Compound `COc1ccc(CNc2c(OCCSc3ccccc3)n[nH]c(=O)c2Br)cc1OC` [Compound 6, 4-bromo-5-(3,4-dimethoxyphenylmethyl-amino)-6-[2-(phenylthio)ethyloxy]-3(2H)-pyridazinone] has an inhibition in vivo at 3 mg/kg [1] of 33%, an inhibition at 1 µg/mL [3] of 100% and an inhibition at 0.1 µg/mL [3] of 100%.

Compound `COc1ccc(CNc2c(OCCCSc3ccccc3)n[nH]c(=O)c2Br)cc1OC` [Compound 7] has an inhibition at 1 µg/mL [3] of 100% and an inhibition at 0.1 µg/mL [3] of 74%.

`COc1ccc(CNc2c(OCCS(=O)(=O)c3ccccc3)n[nH]c(=O)c2Br)cc1OC` [Compound 10, 4-bromo-5-(3,4-dimethoxyphenylmethylamino)-6-[2-(phenylsulfonyl)ethyloxy]-3(2H)-pyridazinone] was tested, and the inhibition at 0.1 µg/mL [3] was 100%.

With `COc1ccc(CNc2c(OCCCS(=O)(=O)c3ccccc3)n[nH]c(=O)c2Br)cc1OC` [Compound 11] the inhibition at 0.1 µg/mL [3] was 71%.

Compound `COc1ccc(CNc2c(OCCSc3ccccc3)nn(CN3CCOCC3)c(=O)c2Br)cc1OC` [Compound 12] has an inhibition in vivo at 3 mg/kg [1] of 43% and an inhibition at 0.1 µg/mL [3] of 100%.

`COc1ccc(CNc2c(OCC[S+]([O-])c3ccccc3)nn(CN3CCOCC3)c(=O)c2Br)cc1OC` (centres unmarked) [Compound 13] showed an inhibition at 0.1 µg/mL [3] of 100%.

Compound `COc1ccc(CNc2c(OCCSc3ccc(F)cc3)n[nH]c(=O)c2Br)cc1OC` [Compound 14, 4-bromo-5-(3,4-dimethoxyphenylmethylamino)-6-[2-(4fluorophenylthio)ethyloxy]-3(2H)-pyridazinone] has an inhibition in vivo at 3 mg/kg [1] of 23.3% and an inhibition at 0.1 µg/mL [3] of 100%.

Work on `COc1ccc(CNc2c(OCC[S+]([O-])c3ccc(F)cc3)n[nH]c(=O)c2Br)cc1OC` (centres unmarked) [Compound 15, 4-bromo-5-(3,4-dimethoxyphenylmethyl-amino)-6-[2-(4-fluorophenylsulfinyl)ethyloxy]-3(2H)-pyridazinone] yielded an inhibition in vivo at 3 mg/kg [1] of 52.4% and an inhibition at 0.1 µg/mL [3] of 100%.

`COc1ccc(CNc2c(OCCS(=O)(=O)c3ccc(F)cc3)n[nH]c(=O)c2Br)cc1OC` [Compound 16, 4-bromo-6-[2-(4-fluorophenylsulfonyl)ethyloxy]-5-(3,4-dimethoxyphenylmethylamino)-3(2H)-pyridazinone] showed an inhibition in vivo at 3 mg/kg [1] of 35.7% and an inhibition at 0.1 µg/mL [3] of 100%.

Compound `COc1ccc(CNc2c(OCCSc3ccc(F)cc3)nn(CN3CCN(C)CC3)c(=O)c2Br)cc1OC` [Compound 17, 4-bromo-5-(3,4-dimethoxyphenylmethylamino)-6-[2-(4-fluorophenylthio)ethyloxy]-2-(4-methylpiperazinlylmethyl)-3(2H)-pyridazinone] has an inhibition at 0.1 µg/mL [3] of 100%.

Compound `COc1ccc(CNc2c(OCCSc3ccccc3Cl)n[nH]c(=O)c2Br)cc1OC` [Compound 18] has an inhibition in vivo at 3 mg/kg [1] of 30.1% and an inhibition at 0.1 µg/mL [3] of 100%.

In the case of `COc1ccc(CNc2c(OCC[S+]([O-])c3ccccc3Cl)n[nH]c(=O)c2Br)cc1OC` (centres unmarked) [Compound 19, 4-bromo-6-[2-(2-chlorophenylsulfinyl)ethyloxy]-5-(3,4-dimethoxyphenylmethylamino)-3(2H)-pyridazinone], the inhibition in vivo at 3 mg/kg [1] is reported as 33.8% and the inhibition at 0.1 µg/mL [3] is reported as 100%.

Compound `COc1ccc(CNc2c(OCCSc3cccc(Cl)c3)n[nH]c(=O)c2Br)cc1OC` [Compound 20] has an inhibition at 1 µg/mL [3] of 100% and an inhibition at 0.1 µg/mL [3] of 90%.

`O=c1[nH]nc(OCCSc2ccc(Cl)cc2)c(NCc2cccnc2)c1Cl` [Compound 23] was tested, and the inhibition at 1 µg/mL [3] was 100% and the inhibition at 0.1 µg/mL [3] was 100%.

`COc1ccc(CNc2c(OCCSc3ccc(Cl)cc3)n[nH]c(=O)c2Cl)cc1OC` [Compound 24] gave an inhibition at 1 µg/mL [3] of 100% and an inhibition at 0.1 µg/mL [3] of 100%.

`Cc1ccc(SCCOc2n[nH]c(=O)c(Cl)c2NCc2cccnc2)cc1` [Compound 27] showed an inhibition at 1 µg/mL [3] of 100% and an inhibition at 0.1 µg/mL [3] of 80%.

In the case of `COc1ccc(CNc2c(OCCSc3ccc(C)cc3)n[nH]c(=O)c2Cl)cc1OC` [Compound 28], the inhibition at 1 µg/mL [3] is reported as 100% and the inhibition at 0.1 µg/mL [3] is reported as 100%.

`COc1ccc(CNc2c(OCC[S+]([O-])c3ccc(C)cc3)n[nH]c(=O)c2Cl)cc1OC` (centres unmarked) [Compound 29] gave an inhibition at 1 µg/mL [3] of 100% and an inhibition at 0.1 µg/mL [3] of 100%.

`COc1ccc(CNc2c(OCC[S+]([O-])c3ccc(C)cc3)n[nH]c(=O)c2Br)cc1OC` (centres unmarked) [Compound 30, 4-bromo-5-(3,4-dimethoxyphenylmethylamino)-6-[2-(p-tolylsulfinyl)ethyloxy]-3(2H)-pyridazinone] gave an inhibition at 1 µg/mL [3] of 100% and an inhibition at 0.1 µg/mL [3] of 100%.

Compound `COc1ccc(CNc2c(OCCSc3ccc(C)cc3C)n[nH]c(=O)c2Br)cc1OC` [Compound 31, 4-bromo-5-(3,4-dimethoxyphenylmethylamino)-6-[2-(2,4-dimethylphenylthio)ethyloxy]-3(2H)-pyridazinone] has an inhibition at 0.1 µg/mL [3] of 100%.

`COc1ccc(CNc2c(OCC[S+]([O-])c3ccc(C)cc3C)n[nH]c(=O)c2Br)cc1OC` (centres unmarked) [Compound 32, 4-bromo-5-(3,4-dimethoxyphenylmethyl-amino)-6-[2-(2,4-dimethylphenylsulfinyl)ethyloxy]-3(2H)pyridazinone] was tested, and the inhibition at 0.1 µg/mL [3] was 100%.

`COc1ccc(CNc2c(OCCS(=O)(=O)c3ccc(C)cc3C)n[nH]c(=O)c2Br)cc1OC` [Compound 33, 4-bromo-5-(3,4-dimethoxyphenylmethyl-amino)-6-[2-(2,4-dimethylphenylsulfonyl)ethyloxy]-3(2H)-pyridazinone] gave an inhibition at 0.1 µg/mL [3] of 100%.

`COc1ccc(SCCOc2n[nH]c(=O)c(Cl)c2NCc2cccnc2)cc1` [Compound 34] gave an inhibition at 1 µg/mL [3] of 100% and an inhibition at 0.1 µg/mL [3] of 64%.

With `COc1ccc(SCCOc2n[nH]c(=O)c(Cl)c2NCc2ccc(OC)c(OC)c2)cc1` [Compound 35] the inhibition at 1 µg/mL [3] was 100% and the inhibition at 0.1 µg/mL [3] was 83%.

`COc1ccc(S(=O)(=O)CCOc2n[nH]c(=O)c(Cl)c2NCc2ccc(OC)c(OC)c2)cc1` [Compound 36] was tested, and the inhibition at 1 µg/mL [3] was 100% and the inhibition at 0.1 µg/mL [3] was 83%.

`COc1ccc(CNc2c(OCCSc3ccc(C#N)cc3)n[nH]c(=O)c2Br)cc1OC` [Compound 37] showed an inhibition in vivo at 3 mg/kg [1] of 35.4%, an inhibition at 1 µg/mL [3] of 100% and an inhibition at 0.1 µg/mL [3] of 100%.

`COc1ccc(CNc2c(OCC[S+]([O-])c3ccc(C#N)cc3)n[nH]c(=O)c2Br)cc1OC` (centres unmarked) [Compound 38] was tested, and the inhibition in vivo at 3 mg/kg [1] was 21.8% and the inhibition at 0.1 µg/mL [3] was 100%.

In the case of `COc1ccc(CNc2c(OCCSc3ccc([N+](=O)[O-])cc3)n[nH]c(=O)c2Br)cc1OC` [Compound 39, 4-bromo-5-(3,4-dimethoxyphenylmethylamino)-6-[2-(4-nitrophenylthio)ethyloxy]-3(2H)-pyridazinone], the inhibition in vivo at 3 mg/kg [1] is reported as 30.4%, the inhibition at 1 µg/mL [3] is reported as 100% and the inhibition at 0.1 µg/mL [3] is reported as 93%.

With `COc1ccc(CNc2c(OCC[S+]([O-])c3ccc([N+](=O)[O-])cc3)n[nH]c(=O)c2Br)cc1OC` (centres unmarked) [Compound 40] the inhibition in vivo at 3 mg/kg [1] was 40.8%.

Compound `CCN(CC)C(=O)c1ccc(SCCOc2n[nH]c(=O)c(Br)c2NCc2ccc(OC)c(OC)c2)cc1` [Compound 41] has an inhibition at 0.1 µg/mL [3] of 100%.
